Structures are written as SMILES.

In one test the target is T1, human Syk (GST-Syk) (Homo sapiens, UniProt P43405).
T1 construct: A cDNA fragment encoding human Syk openreading frame was cloned; made in house; host or cells: Sf21 insect cells (baculovirus, transfer vector pAcG2T)
Description: Syk tyrosine kinase inhibitory assay. In kind it is biochemical. To be noted: Table 11; read-out: Activity grade. An outline of the steps:
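GST-tagged human Syk from baculovirus/Sf21, 0.65 nM final, with 3 μM biotinylated 30-residue activation-loop peptide and 30 μM ATP in Tris pH 8.0/MgCl2 buffer, 0.25% DMSO; 1 h at room temperature. Phosphopeptide captured on streptavidin, detected by europium-labelled anti-phosphotyrosine 4G10 time-resolved fluorescence.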
As for `COCCN(C)c1ccc(-c2cc3nccn3c(Nc3ccc(OC)cc3)n2)cc1OC` [Example 12-51], the IC50 was less than 500 nM.

`COc1ccc(-c2cc3nccn3c(Nc3ccc(Br)cn3)n2)cc1OC` [Example 12-9]: the IC50 is less than 500 nM.

On to `COc1ccc(-c2cc3nccn3c(Nc3ccc4[nH]ncc4c3)n2)cc1OC` [Example 12-2], for which the IC50 is less than 500 nM.

As to `COc1ccc(-c2cc3nccn3c(Nc3ccc(CCN4CCOCC4)cc3)n2)cc1OC` [Example 12-1], the IC50 is 500 to 2000 nM.

As for `CCN(CC)CCOc1ccc(-c2cc3nccn3c(Nc3ccccc3)n2)cc1OC` [Example 12-35], the IC50 is 2000 to 10000 nM.

`CCOc1ccc2nc(Nc3nc(-c4ccc(OC)c(OC)c4)cc4nccn34)sc2c1` [Example 12-6]: the IC50 fell in the range of 500 to 2000 nM.

The same test, now with this note: Table 13.
For `CCCCCCSc1nc(-c2ccc(OC)c(OC)c2)cc2nccn12` [Example 14-18], the Activity grade entry is on record as “C-D”.

Still in this test, the particulars now being: Table 13; read-out: Activity grade.
Turning to `COc1ccc(-c2cc3nccn3c(Sc3ccc(CCC(=O)O)cc3C(N)=O)n2)cc1OC` [Example 14-35], the IC50 was 500 to 2000 nM.

With `COc1ccc(-c2cc3nccn3c(SCc3ccccc3)n2)cc1OC` [Example 14-2], the IC50 is less than 500 nM.

Turning to `CCCSc1nc(-c2ccc(OC)c(OC)c2)cc2nccn12` [Example 14-17], the IC50 was less than 500 nM.

As to `COc1ccc(-c2cc3nccn3c(Oc3ccccc3Br)n2)cc1OC` [Example 14-4], the IC50 lay in the range of 500 to 2000 nM.

On to `COc1ccc(-c2cc3nccn3c(SCC(F)(F)F)n2)cc1OC` [Example 14-16], for which the IC50 was less than 500 nM.

The same test, now with this note: Table 14; read-out: Activity grade.
For the molecule `COc1ccc(-c2cc3nccn3c(Sc3ccc(SCC(=O)O)cc3)n2)cc1OC` [Example 15-3], the IC50 was less than 500 nM.

Consider `COc1ccc(-c2cc3nccn3c(Sc3ccc(C(F)(F)F)cn3)n2)cc1OC` [Example 15-1], for which the IC50 is less than 500 nM.

The same test, now with this note: Table 15; read-out: Activity grade.
`COc1ccc(-c2cc3nccn3c(Sc3ccncc3N)n2)cc1OC` [Example 16-7]: the IC50 is less than 500 nM.

Staying with this test, now noted: Table 16; read-out: Activity grade.
As for `CCSc1nc(-c2ccc(NCCN(C)C)c(OC)c2)cc2nccn12` [Example 17-7], the IC50 was in the range of 500 to 2000 nM.

Regarding `CCSc1nc(-c2ccc(NCCCN3CCCC3=O)c(OC)c2)cc2nccn12` [Example 17-3], the IC50 is less than 500 nM.

The test is the same for the next values; noted with them: Table 17; IC50 classes; read-out: Activity grade.
`COc1ccc(-c2cc3nccn3c(-c3ccccc3)n2)cc1OC` [Example 34]: the IC50 was 500 to 2000 nM.

`COc1ccc(-c2cc3nccn3c(N(C)c3ccccn3)n2)cc1OC` [compound 4]: the IC50 was in the range of 2000 to 10000 nM.

Take `CNC(=O)CCc1ccc(Sc2nc(-c3ccc(OC)c(OC)c3)cc3nccn23)cc1` [Example 21]: the IC50 is less than 500 nM.

As for `COc1ccc(-c2cc3nccn3c(Sc3ccc(CCC(=O)N4CCOCC4)cc3)n2)cc1OC` [Example 18], the IC50 was less than 500 nM.

Turning to `COc1ccc(-c2cc3nccn3c(N(C(C)=O)c3ccccc3)n2)cc1OC(C)=O` [Example 10], the IC50 lay within 2000 to 10000 nM.

For the molecule `COc1ccc(-c2cc3nccn3c(NC(=O)Nc3ccccc3)n2)cc1OC` [Example 22], the IC50 lay within 500 to 2000 nM.

Staying with this test, now noted: in vitro; compounds as yielded by solid phase synthesis, purity about 40 to 90%.
For the molecule `CCSc1nc(-c2ccc(F)c(F)c2)cc2nccn12` [Example 8-7], the “Activity grade (IC50 class)” value is reported as “C-D”.

The test is the same for the next values; noted with them: in vitro; compounds as yielded by solid phase synthesis, purity about 40 to 90%; read-out: Activity grade (IC50 class).
Turning to `CCSc1nc(-c2ccc3cc(OC)ccc3c2)cc2nccn12` [Example 1-6], the IC50 was in the range of 2000 to 10000 nM.

As for `COc1ccc(-c2cc3nccn3c(Nc3ccccc3C(=O)N(C)C)n2)cc1OC` [Example 11-1], the IC50 lay in the range of 500 to 2000 nM.

Regarding `COc1ccc(-c2cc3nccn3c(N(C)C3CCN(C)C3)n2)cc1OC` (stereo not drawn) [Example 9-74], the IC50 was in the range of 500 to 2000 nM.

`CCSc1nc(-c2cccc(N)c2)cc2nccn12` [Example 8, 3-(5-Ethylsulfanyl-imidazo[1,2-c]pyrimidin-7-yl)-phenylamine]: the IC50 was less than 500 nM.

`COc1ccc(-c2cc3nccn3c(N(C)c3ccccc3OC)n2)cc1OC` [Example 11-25]: the IC50 is 500 to 2000 nM.

Consider `CCCCNS(=O)(=O)c1cccc(Nc2nc(-c3ccc(OC)c(OC)c3)cc3nccn23)c1` [Example 11-73], for which the IC50 was less than 500 nM.

`COc1ccc(-c2cc3nccn3c(Nc3ccc(S(N)(=O)=O)cc3)n2)cc1OC` [Example 11-76]: the IC50 is less than 500 nM.

Take `COc1cc(-c2cc3nccn3c(Sc3ccc(CCC(=O)O)cc3)n2)ccc1OCCN1CCOCC1` [Example 13-28]: the IC50 is less than 500 nM.

On to `COc1ccc(-c2cc3nccn3c(Nc3ccc(NCCN4CCOCC4)cc3)n2)cc1OC` [Example 11-82], for which the IC50 is less than 500 nM.

Consider `COc1ccc(-c2cc3nccn3c(N3CCC(O)CC3)n2)cc1OC` [Example 9-69], for which the IC50 is 500 to 2000 nM.

For `COc1ccc(CNc2nc(-c3ccc(OC)c(OC)c3)cc3nccn23)c(OC)c1` [Example 9-80], the IC50 is 500 to 2000 nM.

Turning to `COc1ccc(-c2cc3nccn3c(N3CC[C@@H](NC(=O)C(F)(F)F)C3)n2)cc1OC` [Example 9-70], the IC50 was in the range of 2000 to 10000 nM.

Turning to `COc1ccc(-c2cc3nccn3c(N(CCC#N)c3ccccc3)n2)cc1OC` [Example 11-48], the IC50 was less than 500 nM.

As to `COc1ccc(-c2cc3nccn3c(Sc3cc(OC)c(OC)c(OC)c3)n2)cc1OC` [Example 13-8], the IC50 is less than 500 nM.

`COc1ccc(-c2cc3nccn3c(N(C(C)=O)c3ccccc3)n2)cc1OC(C)=O` [Example 10]: the IC50 was less than 500 nM.

Consider `COc1ccc(-c2cc3nccn3c(Nc3ccc4[nH]nnc4c3)n2)cc1OC` [Example 11-12], for which the IC50 was less than 500 nM.

In the case of `COc1ccc(-c2cc3nccn3c(Sc3nccn3C)n2)cc1OC` [Example 13-12], the IC50 is less than 500 nM.

With `COc1ccc(-c2cc3nccn3c(N3CCC(C(N)=O)CC3)n2)cc1OC` [Example 9-57], the IC50 is less than 500 nM.

In the case of `COc1ccc(-c2cc3nccn3c(Nc3cccc([N+](=O)[O-])c3)n2)cc1OC` [Example 11-70], the IC50 was less than 500 nM.

For the molecule `COc1ccc(-c2cc3ncnn3c(Nc3ncccc3O)n2)cc1OC` [Example 9-17], the IC50 was 2000 to 10000 nM.

As to `CCSc1nc(-c2cccnc2)cc2nccn12` [Example 8-2], the IC50 was 2000 to 10000 nM.

Consider `CCC(=O)c1ccc(Nc2nc(-c3ccc(OC)c(OC)c3)cc3nccn23)cc1` [Example 11-35], for which the IC50 was less than 500 nM.

For the molecule `C=CCOc1ccc(-c2cc3nccn3c(SCC)n2)cc1OC` [Example 3-2], the IC50 was less than 500 nM.

For `COc1ccc(-c2cc3nccn3c(N3CCN(c4ccccc4F)CC3)n2)cc1OC` [Example 9-47], the IC50 lay in the range of 2000 to 10000 nM.

For `COc1ccc(-c2cc3nccn3c(Nc3ccc(O)cc3)n2)cc1OC` [Example 11-29], the IC50 is less than 500 nM.

Take `COC(=O)C(C)(C)Cc1ccc(Nc2nc(-c3ccc(OC)c(OC)c3)cc3nccn23)cc1` [Example 11-4]: the IC50 was less than 500 nM.

For `COc1ccc(-c2cc3nccn3c(N3CCC4(CC3)OCCO4)n2)cc1OC` [Example 9-66], the IC50 lay in the range of 2000 to 10000 nM.

For `COc1ccc(-c2cc3nccn3c(Nc3ccccc3C#N)n2)cc1OC` [Example 11-121], the IC50 lay in the range of 500 to 2000 nM.

Turning to `CCSc1nc(-c2cccs2)cc2nccn12` [Example 8-3], the IC50 was 500 to 2000 nM.

As to `COc1ccc(-c2cc3nccn3c(N3CCN(Cc4ccc5c(c4)OCO5)CC3)n2)cc1OC` [Example 9-32], the IC50 was in the range of 2000 to 10000 nM.

For the molecule `COc1ccc(-c2cc3ncnn3c(Nc3ccccc3)n2)cc1OC` [Example 9.79], the IC50 is less than 500 nM.

As for `CCSc1nc(-c2ccc(OC)c(O)c2)cc2nccn12` [Example 4-2], the IC50 is less than 500 nM.

`COC(=O)CCCc1ccc(N(C)c2nc(-c3ccc(OC)c(OC)c3)cc3nccn23)cc1` [Example 11-125]: the IC50 is 500 to 2000 nM.

Source of the values: patent publication US6911443B2 (Bayer Aktiengesellschaft, priority 2000, dated 2005).
